In US11167012B2, “Peptide inhibition of CCR3-mediated diseases or conditions” (The Board of Trustees of the University of Illinois, priority 2015, dated 2021):
Entries after “also recorded” stand apart in the source; their conditions may differ. Where a SMILES comes first, the peptide text is derived from it. The star is where a group is joined. X1 = NC(=O)CCOCCOCCOCCOCCOCCOCCOCCOCCOCCOCCOCCOCCOCCOCCOCCOCCOCCOCCOCCOCCOCCOCCOCCOCCOCCOCCOCCOCCN*

Columns and labels:
ERK1/2 phosphorylation = assay: Signal transduction assay, Western blotting of phospho-ERK1/2 in AML14.3D10-CCR3 cells; format: cell-based, human
Description: Phospho-ERK was detected using a specific antibody. The membrane was stripped and reprobed for total ERK1/2 as loading control. Immunoblots were quantified by densitometry using ImageJ. PD: PD184161, MEK inhibitor.
AML14.3D10-CCR3 cells were serum starved for 16 hours. Cells were pretreated with vehicle control, R3-2-1 or PD184161 for 30 minutes at 37° C., and subsequently stimulated with 8 nM CCL5 or CCL11 for 2 minutes. Stimulation was stopped by adding ice cold PBS. Cells were centrifuged and lysed in RIPA buffer containing protease and phosphatase inhibitors. Cell lysates were resolved on a 12% SDS-PAGE gel (10 μg/lane), transferred to PVDF membrane and blocked in 5% milk. Phospho-ERK1/2 was detected using rabbit monoclonal antibody (clone D13.14.4E, Cell Signaling Technology, Danvers, Mass.) and secondary goat anti-rabbit IgG-HRP (Santa Cruz Biotechnology, Dallas, Tex.). As a loading control, the membrane was subsequently stripped and re-probed with an antibody against total ERK1/2 (clone 127F5, Cell Signaling Technology).
Concurrent to ligand binding and activation, CCR3 undergoes ligand-induced desensitization and internalization (Zimmermann, et al. (1999) J. Biol. Chem. 274:12611-12618). As part of the desensitization process, CCR3 is degraded. This is thought to occur via β-arrestin recruitment to phosphorylated CCR3 and subsequent sequestration of the receptor into endosomal compartments, eventually leading to degradation. β-arrestin signaling is central in this process and is characterized by a late activation of signaling pathways such as MAPK/ERK1/2, in contrast to acute activation by G proteins. […] Therefore, the R3-2-1 peptide is a biased antagonist in that it inhibits the […] of CCL11 ligand-induced β-arrestin signaling, whereas the small molecule inhibitors are unbiased antagonists.

[1] = Dynamic light scattering of peptide solution; format: physicochemical; conditions: aqueous environment; 0.4 mg/ml in PBS
Text: As indicated herein, the CCR3 peptide analog self-assembles in aqueous medium into highly homogenous nanoparticles. Dynamic light scattering analyses indicate that the radius of the instant nanoparticles is in the range of 1 to 100 nm, more specifically about 8 nm (FIG. 1). Based upon the size and composition, the nanoparticles facilitate translocation of the peptide through the plasma membrane and protect the peptide from degradation in the blood/serum or other body fluids. Accordingly, this invention also provides a nanoparticle composition containing the CC3 peptide analog as well as methods of using the nanoparticle composition to antagonize CCR3 and in the treatment of inflammatory diseases such as asthma, and eosinophilic esophagitis.

CCR3 [2] = target: T1, CCR3 (Homo sapiens, UniProt P51677); assay: Chemotaxis assay (Transwell), blood eosinophils; format: cell-based; parameters: host or cells: AML14.3D10-CCR3 (eosinophilic myelocytic cell line, kept under G418); conditions: for IC90: blood eosinophils, 4 hours
T1 sequence (P51677 1-355): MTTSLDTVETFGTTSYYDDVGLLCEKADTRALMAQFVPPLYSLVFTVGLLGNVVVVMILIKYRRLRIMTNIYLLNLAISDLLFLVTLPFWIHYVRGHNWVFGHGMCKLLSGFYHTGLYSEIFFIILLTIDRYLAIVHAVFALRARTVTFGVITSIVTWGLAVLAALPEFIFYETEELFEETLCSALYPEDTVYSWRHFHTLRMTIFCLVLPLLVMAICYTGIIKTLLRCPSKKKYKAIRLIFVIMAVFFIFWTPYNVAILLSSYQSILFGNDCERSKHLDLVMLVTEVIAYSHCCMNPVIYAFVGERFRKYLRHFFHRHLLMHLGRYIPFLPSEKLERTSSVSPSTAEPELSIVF
Text: Blood eosinophils were purified from anti-coagulated blood drawn from mild allergic asthmatic subjects. Peripheral blood was subjected to density gradient centrifugation over FICOLL-PAQUE® Plus (GE Healthcare, Pittsburgh, Pa.) media to obtain a pellet containing erythrocytes and granulocytes. After erythrocyte lysis via hypotonic shock, eosinophils were purified by negative selection using a cocktail of antibody-conjugated magnetic beads against non-eosinophils (Miltenyi Biotec, Auburn, Calif.). The eosinophils were resuspended in X-VIVO 10 without phenol red. The purity and viability of the eosinophils obtained was routinely >97% as assessed by Hema III and trypan blue staining, respectively.
Cell migration was determined using a 96-well TRANSWELL® system (Corning, Tewksbury, Mass.). Briefly, 200 μl chemoattractant or control medium was added to the lower chamber while 100 μl cells were added to the upper chamber. The two chambers were separated by a polycarbonate filter with 5 μm pores. For AML14.3D10-CCR3 cells, 2×10^5 cells/well were resuspended in RPMI-1640+0.1% BSA and allowed to migrate for 4 hours at 37° C. […] Migrated cells were counted using a Beckman QUANTA SC flow cytometer. All experiments were performed in duplicate. Checkerboard analysis was done to distinguish chemotaxis from chemokinesis.
Primary eosinophils and the stable CCR3+eosinophilic myelocytic cell line, AML14.3D10-CCR3 (Daugherty, et al. (1996) J. Exp. Med. 183:2349-2354) undergo CCR3-mediated chemotaxis induced by multiple chemokines including eotaxin/CCL11, RANTES/CCL5, MCP-4/CCL13, and MEC/CCL28 (Daugherty, et al. (1996) J. Exp. Med. 183:2349-2354; Pan, et al. (2000) J. Immunol. 165:2943-2949). […] In addition, R3-2-1 inhibits chemotaxis of both AML14.3D10-CCR3 and blood eosinophils induced by CCL11/Eotaxin-1, CCL24/Eotaxin-2, and CCL26/Eotaxin-3 in a dose-dependent fashion (Table 3).

CCR3 [3] = target: T1, CCR3; assay: CCR3 degradation in cycloheximide-treated AML14.3D10-CCR3 cells, immunoblot; format: cell-based; parameters: host or cells: AML14.3D10-CCR3 (eosinophilic myelocytic cell line, kept under G418); conditions: 10 μM, 8 nM eotaxin or RANTES for 3 hours
Description: AML14.3D10-CCR3 cells were resuspended in RPMI-1640+0.1% BSA. Aliquots of 1×10^6 cells were pretreated with 10 μM cycloheximide for 1 hour at 37° C. Some cells were concurrently pretreated with 10 μM R3-2-1, 10 μM MG132, or both for 30 minutes. Pretreated cells were stimulated with 8 nM eotaxin or RANTES for 3 hours to induce receptor degradation. An aliquot of untreated cells were reserved at the start of the experiment to establish baseline CCR3 expression. All cells were then lysed in RIPA buffer and immunoblotted for CCR3 with a polyclonal rabbit anti-CCR3 antibody (Abcam) followed by goat anti-rabbit IgG-HRP secondary antibody (Santa Cruz).

For `CC[C@H](C)[C@H](NC(=O)[C@H](Cc1c[nH]c2ccccc12)NC(=O)[C@H](Cc1ccccc1)NC(=O)[C@@H]1CCCN1C(=O)[C@H](CC(C)C)NC(=O)[C@@H](NC(=O)[C@@H](NC(=O)[C@H](CC(C)C)NC(=O)[C@H](Cc1ccccc1)NC(=O)[C@H](CC(C)C)NC(=O)[C@@H](N)CC(C)C)C(C)C)[C@@H](C)O)C(=O)N[C@@H](Cc1c[nH]cn1)C(=O)N[C@@H](Cc1ccc(O)cc1)C(=O)N[C@H](C(=O)N[C@@H](CCCNC(=N)N)C(=O)NCC(=O)N[C@@H](Cc1c[nH]cn1)C(=O)N[C@@H](CC(N)=O)C(=O)N[C@@H](Cc1c[nH]c2ccccc12)C(=O)N[C@H](C(=O)N[C@@H](Cc1ccccc1)C(=O)NCC(=O)N[C@@H](Cc1c[nH]cn1)C(=O)N[C@@H](CC(=O)O)C(=O)N[C@@H](CC(=O)O)C(=O)N[C@@H](CC(=O)O)C(=O)NCCOCCOCCOCCOCCOCCOCCOCCOCCOCCOCCOCCOCCOCCOCCOCCOCCOCCOCCOCCOCCOCCOCCOCCOCCOCCOCCOCCOCCC(N)=O)C(C)C)C(C)C` [Peptide R3-2-1] (H-LLFLVTLPFWIHYVRGHNWVFGHDDD-X1; N-terminus assumed), the “acute (2-5 minutes) and late (30 minutes) phase phosphorylation of ERK1/2” value (ERK1/2 phosphorylation; 10 μM, CCL11-induced) was “inhibits only acute phosphorylation of ERK1/2”, the “inhibition of ERK1/2 phosphorylation induced by RANTES and eotaxin” value (ERK1/2 phosphorylation; 2 and 10 μM, 8 nM CCL5 or CCL11 for 2 minutes) was “inhibits activation of the MAPK pathway; also recorded: attenuated” and the “hydrodynamic radius of self-assembled nanospheres” value [1] was “approximately 8 nm”. For the same compound, the “inhibition of chemotaxis of blood eosinophils” value (CCR3 [2]; 2, 10 or 50 μM) was “similarly able to inhibit chemotaxis of blood eosinophils”, the “IC50 for inhibition of chemotaxis, in words” value (CCR3 [2]; CCL11-, CCL24-, CCL26-induced chemotaxis, summary of Table 3) was “low nanomolar range” and the IC90 (CCR3 [2]; chemotaxis to CCL11/Eotaxin-1 (12 nM)) was 760 ± 100 nM. For the same compound, the IC90 (CCR3 [2]; chemotaxis to CCL24/Eotaxin-2 (20 nM)) was 730 ± 100 nM, the IC90 (CCR3 [2]; chemotaxis to CCL26/Eotaxin-3 (100 nM)) was 1100 ± 150 nM and the “CCR3 degradation induced by eotaxin and RANTES” value (CCR3 [3]) was “enhanced CCR3 degradation induced by eotaxin and RANTES”.
